Measured values: US20080009418A1, “Selective Inhibitors” (Alchemia LTD., priority 2004, published 2008)

What was measured:
Human κ-Opioid (KOP) = target: T1, Human κ-Opioid (KOP) (Homo sapiens, UniProt P41145); assay: Radioligand binding, human κ-opioid (KOP) membranes, filtration, [3H]-Diprenorphine; conditions: compound at 10 μM; [3H]-Diprenorphine
T1 construct: purchased Perkin Elmer Biosignal
How it was run: (§1)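 Membranes from cloned human receptors were incubated with compound and radioligand for 1 hour at room temperature. Bound ligand was collected on 0.3% PEI-soaked filters, washed with cold 50 mM Tris-HCl pH 7.4, and counted by scintillation. Percent inhibition was computed against DMSO totals and reference-ligand nonspecific wells.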

Human μ-opioid (MOP) = target: T2, Human μ-opioid (MOP) (Homo sapiens, UniProt P35372); assay: Radioligand binding, human μ-opioid (MOP) membranes, FlashPlate, [3H]-Naloxone; conditions: compound at 10 μM, [3H]-Naloxone
T2 construct: purchased Perkin Elmer Biosignal
T2 sequence (P35372 whole entry): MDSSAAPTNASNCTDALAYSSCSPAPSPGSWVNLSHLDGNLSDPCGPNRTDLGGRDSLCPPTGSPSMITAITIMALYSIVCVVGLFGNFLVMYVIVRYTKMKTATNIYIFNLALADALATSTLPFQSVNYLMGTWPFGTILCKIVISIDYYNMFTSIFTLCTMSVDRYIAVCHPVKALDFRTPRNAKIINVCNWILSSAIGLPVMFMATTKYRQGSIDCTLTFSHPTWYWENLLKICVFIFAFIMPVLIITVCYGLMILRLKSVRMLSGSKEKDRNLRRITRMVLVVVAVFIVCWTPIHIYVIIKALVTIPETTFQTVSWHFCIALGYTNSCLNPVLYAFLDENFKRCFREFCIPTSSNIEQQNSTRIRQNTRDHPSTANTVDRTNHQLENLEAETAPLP
How it was run: (§2)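 Cloned human receptor membranes were coated onto FlashPlate wells and incubated with radioligand and compound (added from a 0.5 mM DMSO daughter plate) for 1 hour at room temperature in the dark. Scintillation counting gave percent inhibition, with DMSO defining total and reference ligand defining non-specific binding.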

Human opioid (ORL1) = target: T3, Human opioid (ORL1) (Homo sapiens, UniProt P41146); assay: Radioligand binding, human opioid ORL1 membranes, FlashPlate, [125I]-Nociceptin; conditions: compound at 10 μM; [125I]-Nociceptin
T3 construct: purchased Perkin Elmer Biosignal
T3 sequence (P41146 whole entry): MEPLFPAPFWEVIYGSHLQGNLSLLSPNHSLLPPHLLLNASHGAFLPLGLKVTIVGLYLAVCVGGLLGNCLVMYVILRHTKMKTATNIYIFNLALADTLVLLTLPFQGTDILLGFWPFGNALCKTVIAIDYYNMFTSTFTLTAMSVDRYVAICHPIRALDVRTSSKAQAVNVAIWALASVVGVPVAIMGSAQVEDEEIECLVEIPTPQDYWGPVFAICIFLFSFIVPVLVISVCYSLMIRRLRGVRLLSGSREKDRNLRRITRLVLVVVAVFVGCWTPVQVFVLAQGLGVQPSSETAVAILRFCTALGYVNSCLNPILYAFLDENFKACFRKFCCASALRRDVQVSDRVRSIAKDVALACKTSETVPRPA
How it was run: as §2

Human Melanocortin (MC4) = target: T4, Human Melanocortin (MC4) (Homo sapiens, UniProt P32245); assay: Radioligand binding, human melanocortin MC4 membranes, FlashPlate, [125I]-NDP-αMSH; conditions: compound at 10 μM; [125I]-NDP-αMSH
T4 construct: purchased Perkin Elmer Biosignal
T4 sequence (P32245 whole entry): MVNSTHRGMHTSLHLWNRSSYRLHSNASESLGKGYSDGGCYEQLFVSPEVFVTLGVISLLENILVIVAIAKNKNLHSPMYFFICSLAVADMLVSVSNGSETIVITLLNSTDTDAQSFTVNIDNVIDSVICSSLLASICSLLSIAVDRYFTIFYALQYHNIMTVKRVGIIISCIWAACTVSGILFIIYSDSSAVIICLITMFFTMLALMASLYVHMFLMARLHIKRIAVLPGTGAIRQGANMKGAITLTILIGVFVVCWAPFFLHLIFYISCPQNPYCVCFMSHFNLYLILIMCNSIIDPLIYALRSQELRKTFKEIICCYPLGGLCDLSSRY
How it was run: as §2

Human neurokinin (NK1) = target: T5, Human neurokinin (NK1) (Homo sapiens, UniProt P25103); assay: Radioligand binding, human neurokinin NK1 membranes, filtration, [125I]-Substance P; conditions: compound at 10 μM; [125I]-Substance P
T5 construct: purchased Perkin Elmer Biosignal
T5 sequence (P25103 whole entry): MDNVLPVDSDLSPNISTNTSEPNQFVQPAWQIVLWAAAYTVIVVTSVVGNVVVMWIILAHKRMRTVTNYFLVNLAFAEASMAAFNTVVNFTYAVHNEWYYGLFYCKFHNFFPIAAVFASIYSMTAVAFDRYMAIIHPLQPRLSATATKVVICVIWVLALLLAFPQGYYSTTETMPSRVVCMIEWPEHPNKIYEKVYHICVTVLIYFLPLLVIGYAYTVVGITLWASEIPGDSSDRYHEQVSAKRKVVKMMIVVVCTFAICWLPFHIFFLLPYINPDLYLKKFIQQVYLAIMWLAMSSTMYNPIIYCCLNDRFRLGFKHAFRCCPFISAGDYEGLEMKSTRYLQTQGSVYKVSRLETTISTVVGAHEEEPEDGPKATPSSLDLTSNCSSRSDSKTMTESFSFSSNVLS
How it was run: as §1

Human δ-opioid (DOP) = target: T6, Human δ-opioid (DOP) (Homo sapiens, UniProt P41143); assay: Radioligand binding, human δ-opioid (DOP) membranes, FlashPlate, [3H]-Bremazocine; conditions: compound at 10 μM; [3H]-Bremazocine
T6 construct: purchased Perkin Elmer Biosignal
T6 sequence (P41143 whole entry): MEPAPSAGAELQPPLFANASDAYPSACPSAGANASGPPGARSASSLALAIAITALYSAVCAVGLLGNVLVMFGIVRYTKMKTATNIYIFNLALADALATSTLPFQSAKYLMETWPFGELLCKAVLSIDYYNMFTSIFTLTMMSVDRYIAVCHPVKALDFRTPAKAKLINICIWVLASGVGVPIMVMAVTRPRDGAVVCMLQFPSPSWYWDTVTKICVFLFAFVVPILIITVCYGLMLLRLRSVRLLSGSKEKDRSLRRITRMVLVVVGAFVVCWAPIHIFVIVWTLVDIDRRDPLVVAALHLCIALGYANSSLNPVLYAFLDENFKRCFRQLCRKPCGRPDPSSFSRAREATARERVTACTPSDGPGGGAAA
How it was run: as §2

Human Melanocortin (MC3) = target: T7, Human Melanocortin (MC3) (Homo sapiens, UniProt P41968); assay: Radioligand binding, human melanocortin MC3 membranes, FlashPlate, [125I]-NDP-αMSH; conditions: compound at 10 μM, [125I]-NDP-αMSH
T7 construct: purchased Perkin Elmer Biosignal
T7 sequence (P41968 whole entry): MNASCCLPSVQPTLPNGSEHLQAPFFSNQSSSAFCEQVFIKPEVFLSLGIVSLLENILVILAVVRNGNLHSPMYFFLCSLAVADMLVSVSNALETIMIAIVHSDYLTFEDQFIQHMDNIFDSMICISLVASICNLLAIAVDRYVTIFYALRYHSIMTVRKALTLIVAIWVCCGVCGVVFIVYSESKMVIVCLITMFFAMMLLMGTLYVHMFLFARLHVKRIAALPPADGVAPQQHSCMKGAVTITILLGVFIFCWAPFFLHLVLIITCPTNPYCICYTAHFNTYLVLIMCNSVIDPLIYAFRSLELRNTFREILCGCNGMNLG
How it was run: as §2

[1] = target: T8, Human melanin-concentrating hormone (MCH1) (Homo sapiens, UniProt Q99705); assay: Radioligand binding, human melanin-concentrating hormone MCH1 membranes, FlashPlate, [125I]-S36057; conditions: compound at 10 μM, [125I]-S36057
T8 construct: purchased Perkin Elmer Biosignal
T8 sequence (Q99705 whole entry): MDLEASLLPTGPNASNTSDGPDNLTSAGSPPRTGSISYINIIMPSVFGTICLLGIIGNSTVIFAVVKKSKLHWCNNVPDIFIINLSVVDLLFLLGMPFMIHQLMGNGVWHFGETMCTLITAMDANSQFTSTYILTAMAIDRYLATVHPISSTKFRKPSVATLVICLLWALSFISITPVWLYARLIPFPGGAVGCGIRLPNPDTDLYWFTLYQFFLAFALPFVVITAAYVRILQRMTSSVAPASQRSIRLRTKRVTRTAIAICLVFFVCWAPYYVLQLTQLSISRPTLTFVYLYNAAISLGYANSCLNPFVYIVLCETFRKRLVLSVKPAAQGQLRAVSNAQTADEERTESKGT
How it was run: as §2

Human melanocortin (MC5) = target: T9, Human melanocortin (MC5) (Homo sapiens, UniProt P33032); assay: Radioligand binding, human melanocortin MC5 membranes, FlashPlate, [125I]-NDP-αMSH; conditions: compound at 10 μM; [125I]-NDP-αMSH
T9 construct: purchased Perkin Elmer Biosignal
T9 sequence (P33032 whole entry): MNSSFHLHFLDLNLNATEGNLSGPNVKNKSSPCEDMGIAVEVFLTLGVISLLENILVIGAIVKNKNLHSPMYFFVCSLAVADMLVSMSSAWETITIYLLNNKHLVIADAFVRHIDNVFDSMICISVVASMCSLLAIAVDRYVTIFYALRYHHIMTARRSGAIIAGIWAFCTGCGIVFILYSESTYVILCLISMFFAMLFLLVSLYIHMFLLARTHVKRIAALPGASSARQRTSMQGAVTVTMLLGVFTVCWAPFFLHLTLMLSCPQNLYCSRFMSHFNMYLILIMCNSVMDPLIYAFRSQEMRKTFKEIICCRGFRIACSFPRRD
How it was run: as §2

[2] = target: T10, Human neuropeptide Y (NPY-Y1) (Homo sapiens, UniProt P25929); assay: Radioligand binding, human neuropeptide Y NPY-Y1 membranes, FlashPlate, [125I]-PYY; conditions: compound at 10 μM; [125I]-PYY
T10 construct: purchased Perkin Elmer Biosignal
T10 sequence (P25929 1-384): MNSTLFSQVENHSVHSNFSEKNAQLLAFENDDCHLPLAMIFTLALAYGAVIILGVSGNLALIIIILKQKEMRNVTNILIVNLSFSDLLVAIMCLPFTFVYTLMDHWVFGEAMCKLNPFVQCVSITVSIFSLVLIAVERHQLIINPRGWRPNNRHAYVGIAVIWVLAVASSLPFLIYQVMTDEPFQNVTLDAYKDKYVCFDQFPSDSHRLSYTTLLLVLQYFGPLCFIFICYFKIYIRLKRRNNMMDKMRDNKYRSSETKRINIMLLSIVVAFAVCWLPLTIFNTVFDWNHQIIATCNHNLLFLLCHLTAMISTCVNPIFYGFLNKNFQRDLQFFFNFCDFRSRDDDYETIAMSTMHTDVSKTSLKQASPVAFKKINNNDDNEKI
How it was run: as §2

Mouse urotensin (mUR2) = target: T11, Mouse urotensin (mUR2) (Mus musculus, UniProt Q8VIH9); assay: Radioligand binding, mouse urotensin mUR2 membranes, FlashPlate, [125I]-Urotensin II; conditions: compound at 10 μM; [125I]-Urotensin II
T11 construct: purchased Perkin Elmer Biosignal
T11 sequence (Q8VIH9 1-385): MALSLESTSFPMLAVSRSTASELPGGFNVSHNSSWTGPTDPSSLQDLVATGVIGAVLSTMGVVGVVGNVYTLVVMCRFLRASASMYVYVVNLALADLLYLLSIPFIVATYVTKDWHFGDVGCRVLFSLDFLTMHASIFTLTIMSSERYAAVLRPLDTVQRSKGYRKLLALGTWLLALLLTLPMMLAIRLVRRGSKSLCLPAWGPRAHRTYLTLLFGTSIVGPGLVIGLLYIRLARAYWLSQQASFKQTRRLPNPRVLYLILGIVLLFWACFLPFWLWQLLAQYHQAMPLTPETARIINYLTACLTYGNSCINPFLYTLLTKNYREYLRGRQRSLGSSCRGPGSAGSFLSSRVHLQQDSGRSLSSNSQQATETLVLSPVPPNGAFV
How it was run: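 Cloned mouse urotensin (mUR2) receptor membranes from Perkin Elmer Biosignal were immobilized in FlashPlate microplates using a proprietary coating. Each well got 19.5 μl buffer, then 0.5 μl of DMSO, reference ligand, or compound. Adding 5 μl of [125I]-Urotensin II, diluted to 5× final concentration in binding buffer, started binding. Plates were sealed with TopSeal-A and incubated 1 hour at room temperature in the dark. Wells were counted for 30 seconds each on a TopCount after a 60-second delay, and percentage inhibition was calculated.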

T1 sequence (P41145 whole entry): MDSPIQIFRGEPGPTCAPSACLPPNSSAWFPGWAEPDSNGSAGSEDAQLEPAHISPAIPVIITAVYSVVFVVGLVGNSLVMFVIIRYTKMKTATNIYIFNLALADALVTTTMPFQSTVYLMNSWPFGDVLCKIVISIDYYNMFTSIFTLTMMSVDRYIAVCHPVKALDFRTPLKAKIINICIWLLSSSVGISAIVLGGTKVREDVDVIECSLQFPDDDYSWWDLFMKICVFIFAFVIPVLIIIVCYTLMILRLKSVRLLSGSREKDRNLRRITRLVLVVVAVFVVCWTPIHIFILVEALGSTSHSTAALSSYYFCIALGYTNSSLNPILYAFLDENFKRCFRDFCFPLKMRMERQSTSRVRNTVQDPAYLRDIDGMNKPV

## CSC1O[C@H](COCc2ccc(Cl)cc2)[C@@H](O)[C@@H](OCc2ccc(-c3ccccc3)cc2)[C@H]1NC(=O)CCCNC(=N)N (stereo partly drawn) [compound 292]
Human κ-Opioid (KOP)
  A2: inhibition of radioligand binding, human κ-opioid (KOP): − (“−” indicates less than 50% inhibition at 10 μM)
Human μ-opioid (MOP)
  A7: inhibition of radioligand binding, human μ-opioid (MOP): − (“−” indicates less than 50% inhibition at 10 μM)
Human opioid (ORL1)
  A10: inhibition of radioligand binding, human opioid (ORL1): − (“−” indicates less than 50% inhibition at 10 μM)
Human Melanocortin (MC4)
  A4: inhibition of radioligand binding, human melanocortin (MC4): − (“−” indicates less than 50% inhibition at 10 μM)
Human neurokinin (NK1)
  A8: inhibition of radioligand binding, human neurokinin (NK1): + (“+” indicates greater than 50% inhibition at 10 μM)
Human δ-opioid (DOP)
  A1: inhibition of radioligand binding, human δ-opioid (DOP): − (“−” indicates less than 50% inhibition at 10 μM)
Human Melanocortin (MC3)
  A3: inhibition of radioligand binding, human melanocortin (MC3): − (“−” indicates less than 50% inhibition at 10 μM)
[1]
  A6: inhibition of radioligand binding, human melanin-concentrating hormone (MCH1): − (“−” indicates less than 50% inhibition at 10 μM)
Human melanocortin (MC5)
  A5: inhibition of radioligand binding, human melanocortin (MC5): + (“+” indicates greater than 50% inhibition at 10 μM)
[2]
  A9: inhibition of radioligand binding, human neuropeptide Y (NPY-Y1): − (“−” indicates less than 50% inhibition at 10 μM)
Mouse urotensin (mUR2)
  A11: inhibition of radioligand binding, mouse urotensin (mUR2): − (“−” indicates less than 50% inhibition at 10 μM)

## CO[C@H]1[C@H](O)[C@@H](COCc2ccc3ccccc3c2)OC(OCc2cccc(O)c2)[C@@H]1NC(=O)CNC(=N)N (stereo partly drawn) [compound 165]
Human κ-Opioid (KOP)
  A2 radioligand binding, percentage inhibition: − (“−” indicates less than 50% inhibition at 10 μM)
Human μ-opioid (MOP)
  A7 radioligand binding, percentage inhibition: − (“−” indicates less than 50% inhibition at 10 μM)
Human opioid (ORL1)
  A10 radioligand binding, percentage inhibition: − (“−” indicates less than 50% inhibition at 10 μM)
Human Melanocortin (MC4)
  A4 radioligand binding, percentage inhibition: − (“−” indicates less than 50% inhibition at 10 μM)
Human neurokinin (NK1)
  A8 radioligand binding, percentage inhibition: + (“+” indicates greater than 50% inhibition at 10 μM)
Human δ-opioid (DOP)
  A1 radioligand binding, percentage inhibition: − (“−” indicates less than 50% inhibition at 10 μM)
Human Melanocortin (MC3)
  A3 radioligand binding, percentage inhibition: − (“−” indicates less than 50% inhibition at 10 μM)
[1]
  A6 radioligand binding, percentage inhibition: − (“−” indicates less than 50% inhibition at 10 μM)
Human melanocortin (MC5)
  A5 radioligand binding, percentage inhibition: − (“−” indicates less than 50% inhibition at 10 μM)
[2]
  A9 radioligand binding, percentage inhibition: − (“−” indicates less than 50% inhibition at 10 μM)
Mouse urotensin (mUR2)
  A11 radioligand binding, percentage inhibition: − (“−” indicates less than 50% inhibition at 10 μM)

## NCCCC(=O)NC1C(OCc2ccc(Cl)cc2)OC(COCc2ccc3ccccc3c2)C(O)C1OCc1ccccc1 (single isomer, unassigned) [compound 502]
Human κ-Opioid (KOP)
  A2: inhibition of radioligand binding, human κ-opioid (KOP): − (“−” indicates less than 50% inhibition at 10 μM)
Human μ-opioid (MOP); 10 µM
  A7: inhibition of radioligand binding, human μ-opioid (MOP): + (“+” indicates greater than 50% inhibition at 10 μM)
Human opioid (ORL1)
  A10: inhibition of radioligand binding, human opioid (ORL1): + (“+” indicates greater than 50% inhibition at 10 μM)
Human Melanocortin (MC4)
  A4: inhibition of radioligand binding, human melanocortin (MC4): + (“+” indicates greater than 50% inhibition at 10 μM)
Human neurokinin (NK1)
  A8: inhibition of radioligand binding, human neurokinin (NK1): + (“+” indicates greater than 50% inhibition at 10 μM)
Human δ-opioid (DOP)
  A1: inhibition of radioligand binding, human δ-opioid (DOP): − (“−” indicates less than 50% inhibition at 10 μM)
Human Melanocortin (MC3); 10 µM
  A3: inhibition of radioligand binding, human melanocortin (MC3): − (“−” indicates less than 50% inhibition at 10 μM)
[1]; 10 µM
  A6: inhibition of radioligand binding, human melanin-concentrating hormone (MCH1): + (“+” indicates greater than 50% inhibition at 10 μM)
Human melanocortin (MC5)
  A5: inhibition of radioligand binding, human melanocortin (MC5): + (“+” indicates greater than 50% inhibition at 10 μM)
[2]
  A9: inhibition of radioligand binding, human neuropeptide Y (NPY-Y1): − (“−” indicates less than 50% inhibition at 10 μM)
Mouse urotensin (mUR2)
  A11: inhibition of radioligand binding, mouse urotensin (mUR2): − (“−” indicates less than 50% inhibition at 10 μM)
